From patent US12662491B2 (Redona Therapeutics, Inc., priority 2020, dated 2026)

molecular target: T1, Zcchc11 enzyme (Homo sapiens, UniProt Q5TAX3); experiment: TUTase assay (Zcchc11 assay, Lin28a-dependent polyuridylation of pre-let-7); format: biochemical; settings: Lin28a-dependent Zcchc11 (Z11) TUTase activity; read-out: Potency Lin28a-dep Z11 IC50
T1 construct: made in house; host or cells: HEK293 cells (Zcchc11); E. coli Rosetta II (LIN28A)
T1 sequence (Q5TAX3 212-1420): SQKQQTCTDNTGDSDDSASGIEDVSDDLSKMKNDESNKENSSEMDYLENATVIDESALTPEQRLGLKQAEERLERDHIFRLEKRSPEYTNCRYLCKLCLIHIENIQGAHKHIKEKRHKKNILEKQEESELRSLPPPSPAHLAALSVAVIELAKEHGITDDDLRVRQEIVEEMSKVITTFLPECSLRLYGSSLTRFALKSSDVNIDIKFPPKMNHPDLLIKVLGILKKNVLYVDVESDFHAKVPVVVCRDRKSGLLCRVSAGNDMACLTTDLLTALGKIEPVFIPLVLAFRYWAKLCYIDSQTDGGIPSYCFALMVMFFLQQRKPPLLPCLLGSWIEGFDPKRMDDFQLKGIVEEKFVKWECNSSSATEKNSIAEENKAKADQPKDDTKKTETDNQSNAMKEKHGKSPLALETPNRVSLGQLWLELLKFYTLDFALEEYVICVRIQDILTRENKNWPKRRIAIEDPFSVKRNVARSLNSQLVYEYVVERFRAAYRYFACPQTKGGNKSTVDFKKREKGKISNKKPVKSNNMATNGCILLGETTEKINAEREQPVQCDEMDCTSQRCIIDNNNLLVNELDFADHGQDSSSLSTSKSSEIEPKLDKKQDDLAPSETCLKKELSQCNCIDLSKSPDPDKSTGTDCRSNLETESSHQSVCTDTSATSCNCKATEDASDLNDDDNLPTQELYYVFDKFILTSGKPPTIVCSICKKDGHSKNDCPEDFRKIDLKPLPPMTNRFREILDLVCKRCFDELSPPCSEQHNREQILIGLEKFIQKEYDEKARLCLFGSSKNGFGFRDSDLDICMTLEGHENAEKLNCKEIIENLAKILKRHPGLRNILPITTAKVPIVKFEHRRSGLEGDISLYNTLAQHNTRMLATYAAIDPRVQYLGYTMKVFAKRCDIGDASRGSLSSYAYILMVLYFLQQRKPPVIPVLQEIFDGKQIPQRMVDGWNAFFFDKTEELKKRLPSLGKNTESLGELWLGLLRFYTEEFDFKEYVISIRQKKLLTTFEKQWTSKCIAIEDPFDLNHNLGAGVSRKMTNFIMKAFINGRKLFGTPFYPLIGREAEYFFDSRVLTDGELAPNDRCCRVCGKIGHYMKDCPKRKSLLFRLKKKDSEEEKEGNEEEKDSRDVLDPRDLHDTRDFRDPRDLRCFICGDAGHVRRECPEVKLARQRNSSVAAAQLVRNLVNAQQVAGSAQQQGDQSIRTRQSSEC
In short: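 Human Zcchc11 residues 212-1420 (HEK293-expressed, MBP tag cleaved, C-terminal FLAG) at 0.2 nM, with 10 nM full-length human LIN28A and 2 nM 5′-fluorescein pre-let-7, preincubated with compound 30 min at room temperature. Reaction started with 5 uM UTP plus 4 nM 3′-rhodamine A20 quench probe; fluorescein loss read kinetically, IC50 from initial rates.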

Row | IC50 [nM] | SMILES
1 | 1000 to 10000 | COc1ccc(Cl)c(OCC23CC(CN2c2cc4c(cc2Cl)c(=O)c(C(=O)O)cn4-c2ccnc(N)c2)C3)n1 [Compound 177, 1-(2-aminopyridin-4-yl)-6-chloro-7-(1-[[(3-chloro-6-methoxy-pyridin-2-yl)oxy]methyl]-2-azabicyclo [2.1.1]hexan-2-yl)-4-oxoquinoline-3-carboxylic acid]
2 | ≤ 1000 | CN(C)C1CN(c2ccc(-n3cc(C(=O)O)c(=O)c4cc(C#N)c(N5C6CCC5(COc5ncccc5F)CC6)cc43)cn2)C1 [Compound 181, 6-cyano-1-(6-(3-(dimethyl-amino)azetidin-1-yl)pyridin-3-yl)-7-(1-(((3-fluoropyridin-2-yl)oxy)methyl)-7-azabicyclo [2.2.1]heptan-7-yl)-4-oxo-1,4-dihydro-quinoline-3-carboxylic acid]
3 | ≤ 1000 | CN(C)C1CN(c2ccc(-n3cc(C(=O)O)c(=O)c4cc(Cl)c(N5CCC5COc5ncccc5Cl)cc43)cn2)C1 (stereo not drawn) [Compound 184, 6-chloro-7-(2-(((3-chloropyridin-2-yl)oxy)methyl)azetidin-1-yl)-1-(6-(3-(dimethyl-amino)azetidin-1-yl)pyridin-3-yl)-4-oxo-1,4-dihydro-quinoline-3-carboxylic acid formic acid]
4 | ≤ 1000 | CN(C)C1CN(c2ccc(-n3cc(C(=O)O)c(=O)c4cc(Cl)c(N5CCC[C@]5(C)COc5ncccc5Cl)nc43)cn2)C1 [Compound 185]
5 | ≤ 1000 | COc1ccnc(OC[C@H]2C[C@H]3C[C@H]3N2c2cc3c(cc2Cl)c(=O)c(C(=O)O)cn3-c2ccc(N(C)C)nc2)c1F [Compound 196, 6-chloro-1-(6-(dimethyl-amino)pyridin-3-yl)-7-((1R,3R,5R)-3-(((3-fluoro-4-methoxy-pyridin-2-yl)oxy)methyl)-2-azabicyclo [3.1.0]hexan-2-yl)-4-oxo-1,4-dihydro-quinoline-3-carboxylic acid]
6 | ≤ 1000 | COc1ccnc(OC[C@H]2C[C@H]3C[C@H]3N2c2cc3c(cc2F)c(=O)c(C(=O)O)cn3-c2ccc(N(C)C)nc2)c1F [Compound 197, 1-(6-(dimethyl-amino)pyridin-3-yl)-6-fluoro-7-((1R,3R,5R)-3-(((3-fluoro-4-methoxy-pyridin-2-yl)oxy)methyl)-2-azabicyclo [3.1.0]hexan-2-yl)-4-oxo-1,4-dihydro-quinoline-3-carboxylic acid]
7 | ≤ 1000 | COc1ccc(Cl)c(OC[C@H]2C[C@H]3C[C@H]3N2c2cc3c(cc2Cl)c(=O)c(C(=O)O)cn3-c2ccnc(N)c2)n1 [Compound 198, 1-(2-aminopyridin-4-yl)-6-chloro-7-((1R,3R,5R)-3-(((3-chloro-6-methoxy-pyridin-2-yl)oxy)methyl)-2-azabicyclo [3.1.0]hexan-2-yl)-4-oxo-1,4-dihydro-quinoline-3-carboxylic acid]
8 | ≤ 1000 | COc1ccc(Cl)c(OC[C@H]2C[C@H]3C[C@H]3N2c2cc3c(cc2F)c(=O)c(C(=O)O)cn3-c2ccnc(N)c2)n1 [Compound 199, 1-(2-aminopyridin-4-yl)-7-((1R,3R,5R)-3-(((3-chloro-6-methoxy-pyridin-2-yl)oxy)methyl)-2-azabicyclo [3.1.0]hexan-2-yl)-6-fluoro-4-oxo-1,4-dihydro-quinoline-3-carboxylic acid]
9 | ≤ 1000 | CO/N=C1\C[C@H](COc2nc(OC)ccc2Cl)N(c2cc3c(cc2Cl)c(=O)c(C(=O)O)cn3-c2ccc(N3CC(N(C)C)C3)nc2)C1 [Compound 200, (R,E)-6-chloro-7-(2-(((3-chloro-6-methoxy-pyridin-2-yl)oxy)methyl)-4-(methoxyimino)pyrrolidin-1-yl)-1-(6-(3-(dimethyl-amino)azetidin-1-yl)pyridin-3-yl)-4-oxo-1,4-dihydro-quinoline-3-carboxylic acid]
10 | ≤ 1000 | COc1ccc(Cl)c(OC[C@H]2C[C@@H]3C[C@@H]3N2c2cc3c(cc2F)c(=O)c(C(=O)O)cn3-c2ccc(N3CC(N(C)C)C3)nc2)n1 [Compound 201, 7-((1S,3R,5S)-3-(((3-chloro-6-methoxy-pyridin-2-yl)oxy)methyl)-2-azabicyclo [3.1.0]hexan-2-yl)-1-(6-(3-(dimethyl-amino)azetidin-1-yl)pyridin-3-yl)-6-fluoro-4-oxo-1,4-dihydro-quinoline-3-carboxylic acid]
11 | ≤ 1000 | COc1ccc(Cl)c(OCC2C3CC(C3)N2c2cc3c(cc2Cl)c(=O)c(C(=O)O)cn3-c2ccc(N3CC(N(C)C)C3)nc2)n1 (stereo not drawn) [Compound 202, 6-chloro-7-(3-(((3-chloro-6-methoxy-pyridin-2-yl)oxy)methyl)-2-azabicyclo [2.1.1]hexan-2-yl)-1-(6-(3-(dimethyl-amino)azetidin-1-yl)pyridin-3-yl)-4-oxo-1,4-dihydro-quinoline-3-carboxylic acid]
12 | ≤ 1000 | CN(C)C1CN(c2ccc(-n3cc(C(=O)O)c(=O)c4cc(Cl)c(N5CCC[C@@H]5COc5nc6nc[nH]c6cc5Cl)cc43)cn2)C1 [Compound 204, (R)-6-chloro-7-(2-(((6-chloro-1H-imidazo [4,5-b]pyridin-5-yl)oxy)methyl)pyrrolidin-1-yl)-1-(6-(3-(dimethyl-amino)azetidin-1-yl)pyridin-3-yl)-4-oxo-1,4-dihydro-quinoline-3-carboxylic acid]
13 | ≤ 1000 | COc1ccc(Cl)c(OC[C@H]2CCCN2c2cc3c(cc2C)c(=O)c(C(=O)O)cn3-c2ccc(N3CC(N(C)C)C3)nc2)n1 [Compound 206, (R)-7-(2-(((3-chloro-6-methoxy-pyridin-2-yl)oxy)methyl)pyrrolidin-1-yl)-1-(6-(3-(dimethyl-amino)azetidin-1-yl)pyridin-3-yl)-6-methyl-4-oxo-1,4-dihydro-quinoline-3-carboxylic acid]
14 | ≤ 1000 | CN(C)CCn1cc(-n2cc(C(=O)O)c(=O)c3cc(C#N)c(N4CCC[C@@H]4COc4ncccc4Cl)cc32)cn1 [Compound 207]
15 | ≤ 1000 | Cc1cccnc1OC[C@H]1CCCN1c1cc2c(cc1F)c(=O)c(C(=O)O)cn2-c1ccc(N)nc1 [Compound 208, (R)-1-(6-aminopyridin-3-yl)-6-fluoro-7-(2-(((3-methylpyridin-2-yl)oxy)methyl)pyrrolidin-1-yl)-4-oxo-1,4-dihydro-quinoline-3-carboxylic acid]
16 | ≤ 1000 | Nc1cc(-n2cc(C(=O)O)c(=O)c3cc(Cl)c(N4CCC[C@@H]4COc4ncccc4Cl)cc32)ccn1 [Compound 209, (R)-1-(2-aminopyridin-4-yl)-6-chloro-7-(2-(((3-chloropyridin-2-yl)oxy)methyl)pyrrolidin-1-yl)-4-oxo-1,4-dihydro-quinoline-3-carboxylic acid]
17 | ≤ 1000 | Cc1cccnc1OC[C@H]1CCCN1c1cc2c(cc1Cl)c(=O)c(C(=O)O)cn2-c1ccc(N)nc1 [Compound 210, (R)-1-(6-aminopyridin-3-yl)-6-chloro-7-(2-(((3-methylpyridin-2-yl)oxy)methyl)pyrrolidin-1-yl)-4-oxo-1,4-dihydro-quinoline-3-carboxylic acid]
18 | 1000 to 10000 | O=C(O)c1cn(-c2cnccn2)c2cc(N3CCCCC3COc3ccccn3)c(Cl)cc2c1=O (stereo not drawn) [Compound 211, 6-Chloro-4-oxo-1-(pyrazin-2-yl)-7-{2-[(pyridin-2-yloxy)methyl]piperidin-1-yl}quinoline-3-carboxylic acid]
19 | ≤ 1000 | Cc1cccnc1OC[C@H]1CCCN1c1cc2c(cc1Cl)c(=O)c(C(=O)O)cn2-c1cnccn1 [Compound 212, 6-Chloro-7-[(2R)-2-{[(3-methylpyridin-2-yl)oxy]methyl}pyrrolidin-1-yl]-4-oxo-1-(pyrazin-2-yl)quinoline-3-carboxylic acid]
20 | ≤ 1000 | O=C(O)c1cn(-c2cnccn2)c2cc(N3CCC[C@@H]3COc3ncccc3F)c(Cl)cc2c1=O [Compound 213, 6-Chloro-7-[(2R)-2-{[(3-fluoropyridin-2-yl)oxy]methyl}pyrrolidin-1-yl]-4-oxo-1-(pyrazin-2-yl)quinoline-3-carboxylic acid]
21 | ≤ 1000 | Nc1ccc(-n2cc(C(=O)O)c(=O)c3cc(Cl)c(N4CCC[C@@H]4COc4ncccc4F)cc32)cn1 [Compound 214, 1-(6-Aminopyridin-3-yl)-6-chloro-7-[(2R)-2-{[(3-fluoropyridin-2-yl)oxy]methyl}pyrrolidin-1-yl]-4-oxoquinoline-3-carboxylic acid]
